Data: patent US20240390340A1 (INCYTE CORPORATION, priority 2023, published 2024)

Key:
KRAS G12D = KRAS G12D (Homo sapiens, UniProt P01116, G12D); test: GDP-GTP exchange assay (bodipy-GDP/GppNHp, SOS1), KRAS G12D; type: biochemical; settings: Table H, column G12D; for compounds isolated as several atropisomers/diastereoisomers the value for the most potent isomer is quoted; read-out: KRAS G12D exchange assay IC50
KRAS G12V = KRAS G12V (Homo sapiens, UniProt P01116, G12V); test: GDP-GTP exchange assay (bodipy-GDP/GppNHp, SOS1), KRAS G12V; type: biochemical; settings: Table H, column G12V; for compounds isolated as several atropisomers/diastereoisomers the value for the most potent isomer is quoted; read-out: KRAS G12V exchange assay IC50
Caco-2 cells = test: Caco2 assay (Papp A-B); type: in vitro ADME; settings: test compound 50 μM, 120 min, 37° C.
Method: Caco-2 cells are grown at 37° C. in an atmosphere of 5% CO2 in DMEM growth medium supplemented with 10% (v/v) fetal bovine serum, 1% (v/v) nonessential amino acids, penicillin (100 U/mL), and streptomycin (100 μg/mL). Confluent cell monolayers are subcultured every 7 days or 4 days for Caco-2 by treatment with 0.05% trypsin containing […]. Caco-2 cells are seeded in 96-well Transwell plates. The seeding density for Caco-2 cells is 14,000 cells/well. DMEM growth medium is replaced every other day after seeding. Cell monolayers are used for transport assays between 22 and 25 days for Caco-2 cells.
Cell culture medium is removed and replaced with HBSS. To measure the TEER, the HBSS is added into the donor compartment (apical side) and receiver compartment (basolateral side). The TEER is measured by using a REMS Autosampler to ensure the integrity of the cell monolayers. Caco-2 cell monolayers with TEER values 300 Ω·cm^2 are used for transport experiments. To determine the Papp in the absorptive direction (A-B), solution of test compound (50 μM) in HBSS is added to the donor compartment (apical side), while HBSS solution with 4% BSA is added to the receiver compartment (basolateral side). The apical volume was 0.075 mL, and the basolateral volume is 0.25 mL. The incubation period is 120 min. at 37° C. in an atmosphere of 5% CO2. At the end of the incubation period, samples from the donor and receiver sides are removed and an equal volume of MeCN is added for protein precipitation. The supernatants are collected after centrifugation (3000 rpm, Allegra X-14R Centrifuge from Beckman Coulter, Indianapolis, IN) for LCMS analysis. The permeability value is determined according to the equation:
[formula] • where the flux rate (F, mass/time) is calculated from the slope of cumulative amounts of compound of interest on the receiver side, SA is the surface area of the cell membrane, VD is the donor volume, and MD is the initial amount of the solution in the donor chamber.
The symbol “+” indicates a Caco-2 value of ≤0.5, “++” indicates a Caco-2 value of >0.5 but ≤1; and “+++” indicates a Caco-2 value of >1. “NA” indicates IC50 not available.

Chain of KRAS G12V (P01116 1-188 isoform P01116-2 G12V): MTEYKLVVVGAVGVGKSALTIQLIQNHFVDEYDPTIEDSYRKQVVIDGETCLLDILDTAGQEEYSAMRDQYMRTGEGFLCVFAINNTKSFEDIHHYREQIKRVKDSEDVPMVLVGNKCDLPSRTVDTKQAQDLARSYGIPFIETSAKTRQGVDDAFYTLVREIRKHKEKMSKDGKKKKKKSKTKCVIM
Chain of KRAS G12D (P01116 1-188 isoform P01116-2 G12D): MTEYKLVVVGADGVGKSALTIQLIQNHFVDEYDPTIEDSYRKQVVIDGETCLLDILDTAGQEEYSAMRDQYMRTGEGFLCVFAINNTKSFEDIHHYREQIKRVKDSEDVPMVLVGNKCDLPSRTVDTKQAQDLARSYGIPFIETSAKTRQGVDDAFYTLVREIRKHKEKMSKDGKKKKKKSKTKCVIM

Row | Structure (SMILES) | IC50 (KRAS G12D) [nM] | IC50 (KRAS G12V) [nM] | Caco-2 (Caco-2 cells)
1 | Cc1nc2c(F)c(-c3cccc(Cl)c3Cl)c(CCC#N)cc2c2c1cc([C@H]1C[C@H](OCc3nccs3)CN1C(=O)C1CC1)n2[C@H]1[C@H]2CN[C@@H]1C2 [Example 9] | ≤ 100 | ≤ 100 | + (a Caco-2 value of ≤0.5)
2 | Cc1nc2c(F)c(-c3cccc(Cl)c3Cl)c(CCC#N)cc2c2c1cc([C@H]1C[C@H](OC3CCOCC3)CN1C(=O)C1CC1)n2[C@H]1[C@H]2CN[C@@H]1C2 [Example 22] | ≤ 100 | ≤ 100 | + (a Caco-2 value of ≤0.5)
3 | Cc1nc2c(F)c(-c3cccc(Cl)c3Cl)c(CCC#N)cc2c2c1cc([C@H]1C[C@H](OCc3ccc(F)cc3C#N)CN1C(=O)C1CC1)n2[C@H]1[C@H]2CN[C@@H]1C2 [Example 17] | ≤ 100 | ≤ 100 | + (a Caco-2 value of ≤0.5)
4 | COC1CCC(O[C@H]2C[C@H](c3cc4c(C)nc5c(F)c(-c6cccc(Cl)c6Cl)c(CCC#N)cc5c4n3[C@H]3[C@H]4CN[C@@H]3C4)N(C(=O)C3CC3)C2)C1 (stereo partly drawn) [Example 23] | ≤ 100 | ≤ 100 | ++ (a Caco-2 value of >0.5 but ≤1)
5 | COc1cc(O[C@H]2C[C@H](c3cc4c(C)nc5c(F)c(-c6cccc(Cl)c6Cl)c(CCC#N)cc5c4n3[C@H]3[C@H]4CN[C@@H]3C4)N(C(=O)C3CC3)[C@@H]2C)ccn1 [Example 41, 3-(1-((1R,4R,5S)-2-Azabicyclo[2.1.1]hexan-5-yl)-2-((2R,4S,5R)-1-(cyclopropanecarbonyl)-4-((2-methoxypyridin-4-yl)oxy)-5-methylpyrrolidin-2-yl)-7-(2,3-dichlorophenyl)-6-fluoro-4-methyl-1H-pyrrolo[3,2-c]quinolin-8-yl)propanenitrile] | ≤ 100 | ≤ 100 | ++ (a Caco-2 value of >0.5 but ≤1)
6 | Cc1nc2c(F)c(-c3cccc(Cl)c3Cl)c(CCC#N)cc2c2c1cc([C@H]1C[C@H](OCc3cc(C(F)(F)F)sn3)CN1C(=O)C1CC1)n2[C@H]1[C@H]2CN[C@@H]1C2 [Example 11] | ≤ 100 | ≤ 100 | + (a Caco-2 value of ≤0.5)
7 | Cc1cc(CO[C@H]2C[C@H](c3cc4c(C)nc5c(F)c(-c6cccc(Cl)c6Cl)c(CCC#N)cc5c4n3[C@H]3[C@H]4CN[C@@H]3C4)N(C(=O)C3CC3)C2)ns1 [Example 15] | ≤ 100 | ≤ 100 | +++ (a Caco-2 value of >1)
8 | Cc1nc2c(F)c(-c3cccc(Cl)c3Cl)c(CCC#N)cc2c2c1cc([C@H]1C[C@H](n3nnc(N4CCCC4)n3)CN1C(=O)C1CC1)n2[C@H]1[C@H]2CN[C@@H]1C2 [Example 75, 3-(1-((1R,4R,5S)-2-Azabicyclo[2.1.1]hexan-5-yl)-2-((2R,4S)-1-(cyclopropanecarbonyl)-4-(5-(pyrrolidin-1-yl)-2H-tetrazol-2-yl)pyrrolidin-2-yl)-7-(2,3-dichlorophenyl)-6-fluoro-4-methyl-1H-pyrrolo[3,2-c]quinolin-8-yl)propanenitrile] | ≤ 100 | ≤ 100 | + (a Caco-2 value of ≤0.5)
9 | Cc1nc2c(F)c(-c3cccc(Cl)c3Cl)c(CCC#N)cc2c2c1cc([C@H]1C[C@H](Oc3ccnc4ccsc34)CN1C(=O)C1CC1)n2[C@H]1[C@H]2CN[C@@H]1C2 [Example 55, 3-(1-((1R,4R,5S)-2-Azabicyclo[2.1.1]hexan-5-yl)-2-((2R,4S)-1-(cyclopropanecarbonyl)-4-(thieno[3,2-b]pyridin-7-yloxy)pyrrolidin-2-yl)-7-(2,3-dichlorophenyl)-6-fluoro-4-methyl-1H-pyrrolo[3,2-c]quinolin-8-yl)propanenitrile] | ≤ 100 | ≤ 100 | + (a Caco-2 value of ≤0.5)
10 | Cc1nc2c(F)c(-c3cccc(Cl)c3Cl)c(CCC#N)cc2c2c1cc([C@H]1C[C@H](n3nncc3C3CCCC3)CN1C(=O)C1CC1)n2[C@H]1[C@H]2CN[C@@H]1C2 [Example 71, 3-(1-((1R,4R,5S)-2-Azabicyclo[2.1.1]hexan-5-yl)-2-((2R,4S)-4-(5-cyclopentyl-1H-1,2,3-triazol-1-yl)-1-(cyclopropanecarbonyl)pyrrolidin-2-yl)-7-(2,3-dichlorophenyl)-6-fluoro-4-methyl-1H-pyrrolo[3,2-c]quinolin-8-yl)propanenitrile] | ≤ 100 | ≤ 100 | + (a Caco-2 value of ≤0.5)
11 | C[C@@H]1[C@@H](Oc2cc(F)ccn2)C[C@H](c2cc3c([C@@H](C)O)nc4c(F)c(-c5cccc(Cl)c5Cl)c(CCC#N)cc4c3n2[C@H]2[C@H]3CN[C@@H]2C3)N1C(=O)C1CC1 [Example 63, 3-(1-((1R,4R,5S)-2-Azabicyclo[2.1.1]hexan-5-yl)-2-((2R,4S,5R)-1-(cyclopropanecarbonyl)-4-((4-fluoropyridin-2-yl)oxy)-5-methylpyrrolidin-2-yl)-7-(2,3-dichlorophenyl)-6-fluoro-4-((R)-1-hydroxyethyl)-1H-pyrrolo[3,2-c]quinolin-8-yl)propanenitrile] | ≤ 100 | ≤ 100 | ++ (a Caco-2 value of >0.5 but ≤1)

Now from value to molecule:

Row | IC50 (KRAS G12D) [nM] | IC50 (KRAS G12V) [nM] | Caco-2 (Caco-2 cells) | Structure (SMILES)
12 | ≤ 100 | ≤ 100 | + (a Caco-2 value of ≤0.5) | C[C@@H](O)c1nc2c(F)c(-c3cccc(Cl)c3Cl)c(CCC#N)cc2c2c1cc([C@H]1C[C@H](Oc3nccs3)CN1C(=O)C1CC1)n2[C@H]1[C@H]2CN[C@@H]1C2 [Example 54, 3-(1-((1R,4R,5S)-2-Azabicyclo[2.1.1]hexan-5-yl)-2-((2R,4S)-1-(cyclopropanecarbonyl)-4-(thiazol-2-yloxy)pyrrolidin-2-yl)-7-(2,3-dichlorophenyl)-6-fluoro-4-((R)-1-hydroxyethyl)-1H-pyrrolo[3,2-c]quinolin-8-yl)propanenitrile]
13 | ≤ 100 | ≤ 100 | + (a Caco-2 value of ≤0.5) | CCc1c(-c2ccccc2)nnn1[C@H]1C[C@H](c2cc3c(C)nc4c(F)c(-c5cccc(Cl)c5Cl)c(CCC#N)cc4c3n2[C@H]2[C@H]3CN[C@@H]2C3)N(C(=O)C2CC2)C1 [Example 70, 3-(1-((1R,4R,5S)-2-Azabicyclo[2.1.1]hexan-5-yl)-2-((2R,4S)-1-(cyclopropanecarbonyl)-4-(5-ethyl-4-phenyl-1H-1,2,3-triazol-1-yl)pyrrolidin-2-yl)-7-(2,3-dichlorophenyl)-6-fluoro-4-methyl-1H-pyrrolo[3,2-c]quinolin-8-yl)propanenitrile]
14 | ≤ 100 | ≤ 100 | ++ (a Caco-2 value of >0.5 but ≤1) | COc1cc(O[C@H]2C[C@H](c3cc4c([C@@H](C)O)nc5c(F)c(-c6cccc(Cl)c6Cl)c(CCC#N)cc5c4n3[C@H]3[C@H]4CN[C@@H]3C4)N(C(=O)C3CC3)C2)ncn1 [Example 57, 3-(1-((1R,4R,5S)-2-Azabicyclo[2.1.1]hexan-5-yl)-2-((2R,4S)-1-(cyclopropanecarbonyl)-4-((6-methoxypyrimidin-4-yl)oxy)pyrrolidin-2-yl)-7-(2,3-dichlorophenyl)-6-fluoro-4-((R)-1-hydroxyethyl)-1H-pyrrolo[3,2-c]quinolin-8-yl)propanenitrile]
15 | ≤ 100 | ≤ 100 | + (a Caco-2 value of ≤0.5) | Cc1cccc(F)c1CO[C@H]1C[C@H](c2cc3c(C)nc4c(F)c(-c5cccc(Cl)c5Cl)c(CCC#N)cc4c3n2[C@H]2[C@H]3CN[C@@H]2C3)N(C(=O)C2CC2)C1 [Example 19]
16 | ≤ 100 | ≤ 100 | + (a Caco-2 value of ≤0.5) | Cc1nc2c(F)c(-c3cccc(Cl)c3Cl)c(CCC#N)cc2c2c1cc([C@H]1C[C@H](OCc3ccnn3C(F)F)CN1C(=O)C1CC1)n2[C@H]1[C@H]2CN[C@@H]1C2 [Example 8]
17 | ≤ 100 | ≤ 100 | + (a Caco-2 value of ≤0.5) | Cc1nc2c(F)c(-c3cccc(Cl)c3Cl)c(CCC#N)cc2c2c1cc([C@H]1C[C@H](OC(C)c3ccon3)CN1C(=O)C1CC1)n2[C@H]1[C@H]2CN[C@@H]1C2 (stereo partly drawn) [Example 32]
18 | ≤ 100 | ≤ 100 | ++ (a Caco-2 value of >0.5 but ≤1) | Cc1nc2c(F)c(-c3cccc(Cl)c3Cl)c(CCC#N)cc2c2c1cc([C@H]1C[C@H](n3cc(F)cn3)CN1C(=O)C1CC1)n2[C@H]1[C@H]2CN[C@@H]1C2 [Example 72, 3-(1-((1R,4R,5S)-2-Azabicyclo[2.1.1]hexan-5-yl)-2-((2R,4S)-1-(cyclopropanecarbonyl)-4-(4-fluoro-1H-pyrazol-1-yl)pyrrolidin-2-yl)-7-(2,3-dichlorophenyl)-6-fluoro-4-methyl-1H-pyrrolo[3,2-c]quinolin-8-yl)propanenitrile]
